# Laboratory results taken from patent US11524012B1, “Quinolone analogs and their salts, compositions, and method for their use” (Senhwa Biosciences, Inc., priority 2018, dated 2022).
# Experiment: Stability study of lyophilized Compound I with mannitol (Method A / Method B samples)
# Format: physicochemical
# Protocol: […] Each 30 mL Type I, clear glass sample vial with 20 mm Freeze Dry Stoppers (Flurotech™ coated) contained 150 mg of Compound I.
# At each time point, a vial was removed from the stored condition and reconstituted with 10 mL of D5W and analyzed by HPLC method as discussed in Example 5 at 1 month, 2 months, 3 months, and/or 6 months. In Tables 18-18e, RRT matches the Compounds as shown below.
# Sample Preparation—Method A: 10% Mannitol solution was prepared by weighing 200 g±1.0 g of mannitol into glass beaker, adding approximately 1500 mL of WFI (water for injection) to the beaker and stirring until mannitol was dissolved. The mannitol solution was transferred to a 2 L volumetric flask and made to volume with WFI, then poured back to the original beaker to sir and mix further. 1M HCl solution was prepared by adding 16.4 mL of HCl (37%) to a 200 mL volumetric flask containing approximately 100 mL of WFI, adding WFI to make 200 mL in volume, and inverting to mix the prepared solution.
# To a tared 2 L Schott bottle containing a magnetic stirrer and wrapped in aluminum foil, 1020 g±1.0 g of the 10% mannitol solution was added. Then, 58.4 g±0.05 g of the 1M HCl solution was added to the 2 L Schott bottle and stirred for approximately 10 minutes. The solution prepared in the 2 L Schott bottle was purged with nitrogen which was continued throughout the manufacturing process. 30.22 g of Compound I (free base) was weighed then added to the 2 L Schott bottle containing 10% mannitol solution and 1 M HCl solution with continual magnetic stirring. The container used to weigh Compound I was rinsed with 3×10 mL of WFI and added to the Schott bottle. After Compound I dissolved (approximately 40 minutes), additional 650 g of WFI was added to the Schott bottle and the solution was stirred for approximately 10 minutes. The pH of the Compound I solution (in Schott bottle) was measured then adjusted to pH 4.5±0.1 using 1 M HCl solution. After each addition of 1 M HCl solution, the solution was stirred for several minutes prior to verifying the pH. Once the pH was adjusted, nitrogen purging was stopped. The pH adjusted Compound I solution was further diluted with WFI to a target weight of 2040 g±1.0 g and stirred.
# The final solution (pH adjusted and diluted) was filtered (chain including PVD Fmembrane filter 0.45 μm and 0.22 μm; peristaltic filtration pump by Watson Marlow) in the Bigneat and the bottle containing the filtered solution was sealed. The filtered solution was pumped (Watson Marlow Flexicon PF6-B pump; 100 RPM) into 30 mL Schott Clear Glass vials (10.0 mL filtered solution each). The glass vials were partially stoppered with 20 mm Freeze Dry Stopper Flurotec (Daikyo Seiko) one vial at a time with sterilized utensils inside a fume hood (Envair B101+1.5R) and placed on freeze dryer trays. The freeze dryer trays were transferred into freeze dry chamber and vial probe was positioned (Lyostar II; FTS Kinetics). Lyophilization was performed using the lyophilization cycle listed below. After lyophilization cycle finished, the vials were back filled with N2 and the stopper was placed in situ, wiped down with isopropanol in the fume hood once removed from the freeze dryer, reconciled, then crimped. Seven vials out of 186 sample vials placed under the lyophilization cycle had smashed in the freeze dryer.
# Sample Preparation—Method B (dissolved oxygen content ≤1 ppm): 2 L WFI was poured into a Schott bottled and degassed for 30 minutes with N2 until dissolved oxygen content was ≤1 ppm (dissolved oxygen meter and probe; Mettler Toledo). 10% Mannitol solution was prepared by adding […] of mannitol and 1000 mL of degassed WFI to a tared 2 L Schott bottle containing a magnetic stirrer and wrapped in aluminum foil. To the Schott bottle containing mannitol, 15 mL of 2M HCl was added and stirred for approximately 10 minutes. The resulting solution was sparged with N2 while stirring until dissolved oxygen content was ≤1 ppm (approx. 30 min). […]
# [1] = Method A sample, 2-8° C./ambient % RH, 1 month
# [2] = Method A sample, 2-8° C./ambient % RH, 2 months
# [3] = Method A sample, 2-8° C./ambient % RH, 3 months
# [4] = Method A sample, 2-8° C./ambient % RH, 6 months
# [5] = Method A sample, 2-8° C./ambient % RH, 9 months
# [6] = Method A sample, 2-8° C./ambient % RH, 12 months
# [7] = Method A sample, 2-8° C./ambient % RH, 18 months
# [8] = Method A sample, 2-8° C./ambient % RH, 24 months
# [9] = Method A sample, 2-8° C./ambient % RH, 36 months
# [10] = Method A sample, 2-8° C./ambient % RH, Initial
# [11] = Method B sample, 5° C, 3 months
# [12] = Method B sample, 5° C, 6 months
structure (smiles),measurement,setting,value
"Cc1cnc(CNC(=O)c2c(=O)c3ccc(N4CCCN(C)CC4)nc3n3c2sc2ccccc23)cn1 [Compound I, 2-(4-Methyl-[1,4]diazepan-1-yl)-5-oxo-5H-7-thia-1,11b-diaza-benzo[c]fluorene-6-carboxylic acid (5-methyl-pyrazin-2-ylmethyl)-amide]",Appearance,[1],White powder
same,Appearance (Reconstituted Solution),[1],"Clear, colorless"
same,Compound I by HPLC assay,[1],101%
same,Reconstitution Time,[1],54 s
same,Related Substances RRT 0.83,[1],RRT 0.83: 0.41%
same,Related Substances RRT 0.88,[1],RRT 0.88: 0.05%
same,Related Substances RRT 0.95A,[1],RRT 0.95A: 0.10%
same,Related Substances RRT 0.95B,[1],RRT 0.95B: 0.06%
same,Related Substances RRT 1.05,[1],RRT 1.05: 0.18%
same,Related Substances RRT 1.08,[1],RRT 1.08: 0.17%
same,Related Substances Total,[1],Total: 1.0%
same,Water Content,[1],0.16%
same,pH,[1],4.56
same,Appearance,[2],White powder
same,Appearance (Reconstituted Solution),[2],"Clear, colorless"
same,Compound I by HPLC assay,[2],101%
same,Reconstitution Time,[2],55 s
same,Related Substances RRT 0.88,[2],RRT 0.88: 0.06%
same,Related Substances RRT 0.95B,[2],RRT 0.95B: 0.06%
same,Related Substances RRT 1.05,[2],RRT 1.05: 0.17%
same,Related Substances RRT 1.07,[2],RRT 1.07: 0.15%
same,Related Substances Total,[2],Total: 0.4%
same,Water Content,[2],0.20%
same,pH,[2],4.51
same,Appearance,[3],White powder
same,Appearance (Reconstituted Solution),[3],"Clear, colorless"
same,Compound I by HPLC assay,[3],102%
same,Reconstitution Time,[3],41 s
same,Related Substances RRT 0.88,[3],RRT 0.88: 0.05%
same,Related Substances RRT 0.95A,[3],RRT 0.95A: 0.05%
same,Related Substances RRT 0.95B,[3],RRT 0.95B: 0.06%
same,Related Substances RRT 0.96,[3],RRT 0.96: 0.06%
same,Related Substances RRT 1.05,[3],RRT 1.05: 0.16%
same,Related Substances RRT 1.07,[3],RRT 1.07: 0.20%
same,Related Substances Total,[3],Total: 0.6%
same,Water Content,[3],0.16%
same,pH,[3],4.45
same,Appearance,[4],White powder
same,Appearance (Reconstituted Solution),[4],"Clear, colorless"
same,Compound I by HPLC assay,[4],100%
same,Related Substances RRT 0.88,[4],RRT 0.88: 0.09%
same,Related Substances RRT 0.89,[4],RRT 0.89: 0.05%
same,Related Substances RRT 0.95B,[4],RRT 0.95B: 0.08%
same,Related Substances RRT 0.96,[4],RRT 0.96: 0.07%
same,Related Substances RRT 1.05,[4],RRT 1.05: 0.17%
same,Related Substances RRT 1.07,[4],RRT 1.07: 0.28%
same,Related Substances Total,[4],Total: 0.7%
same,Water Content,[4],0.64%
same,pH,[4],4.25
same,Appearance,[5],White powder
same,Appearance (Reconstituted Solution),[5],"Clear, colorless"
same,Compound I by HPLC assay,[5],100%
same,Related Substances RRT 0.88,[5],RRT 0.88: 0.06%
same,Related Substances RRT 0.95B,[5],RRT 0.95B: 0.06%
same,Related Substances RRT 0.96,[5],RRT 0.96: 0.05%
same,Related Substances RRT 0.97,[5],RRT 0.97: 0.07%
same,Related Substances RRT 1.05,[5],RRT 1.05: 0.17%
same,Related Substances RRT 1.07,[5],RRT 1.07: 0.27%
same,Related Substances Total,[5],Total: 0.7%
same,Water Content,[5],0.17%
same,pH,[5],4.46
same,Appearance,[6],White powder
same,Appearance (Reconstituted Solution),[6],"Clear, colorless"
same,Compound I by HPLC assay,[6],101%
same,Related Substances RRT 0.88,[6],RRT 0.88: 0.09%
same,Related Substances RRT 0.89,[6],RRT 0.89: 0.07%
same,Related Substances RRT 0.95B,[6],RRT 0.95B: 0.05%
same,Related Substances RRT 0.96,[6],RRT 0.96: 0.10%
same,Related Substances RRT 0.97,[6],RRT 0.97: 0.11%
same,Related Substances RRT 1.05,[6],RRT 1.05: 0.17%
same,Related Substances RRT 1.07,[6],RRT 1.07: 0.45%
same,Related Substances Total,[6],Total: 1.0%
same,Water Content,[6],0.20%
same,pH,[6],4.47
same,Appearance,[7],White powder
same,Appearance (Reconstituted Solution),[7],"Clear, colorless"
same,Compound I by HPLC assay,[7],98%
same,Related Substances RRT 0.88,[7],RRT 0.88: 0.05%
same,Related Substances RRT 0.95B,[7],RRT 0.95B: 0.05%
same,Related Substances RRT 0.96,[7],RRT 0.96: 0.06%
same,Related Substances RRT 0.97,[7],RRT 0.97: 0.07%
same,Related Substances RRT 1.04,[7],RRT 1.04: 0.05%
same,Related Substances RRT 1.05,[7],RRT 1.05: 0.17%
same,Related Substances RRT 1.07,[7],RRT 1.07: 0.20%
same,Related Substances Total,[7],Total: 0.6%
same,Water Content,[7],0.24%
same,pH,[7],4.23
same,Appearance,[8],White powder
same,Appearance (Reconstituted Solution),[8],"Clear, colorless"
same,Compound I by HPLC assay,[8],99%
same,Related Substances RPT 0.88,[8],RPT 0.88: 0.06%
same,Related Substances RPT 0.95B,[8],RPT 0.95B: 0.05%
same,Related Substances RPT 0.96,[8],RPT 0.96: 0.06%
same,Related Substances RPT 0.97,[8],RPT 0.97: 0.08%
same,Related Substances RRT 0.89,[8],RRT 0.89: 0.05%
same,Related Substances RRT 1.05,[8],RRT 1.05: 0.17%
same,Related Substances RRT 1.07,[8],RRT 1.07: 0.29%
same,Related Substances Total,[8],Total: 0.8%
same,Water Content,[8],0.21%
same,pH,[8],4.37
same,Appearance,[9],White powder
same,Appearance (Reconstituted Solution),[9],"Clear, colorless"
same,Compound I by HPLC assay,[9],101%
same,Related Substances RRT 0.88,[9],RRT 0.88: 0.06%
same,Related Substances RRT 0.96,[9],RRT 0.96: 0.06%
same,Related Substances RRT 0.97,[9],RRT 0.97: 0.06%
same,Related Substances RRT 1.05,[9],RRT 1.05: 0.18%
same,Related Substances RRT 1.07,[9],RRT 1.07: 0.24%
same,Related Substances Total,[9],Total: 0.6%
same,Water Content,[9],0.28%
same,pH,[9],4.48
same,Appearance,[10],White powder
same,Appearance (Reconstituted Solution),[10],"Clear, colorless"
same,Compound I by HPLC assay,[10],101.5%
same,Related Substances RRT 1.05,[10],RRT 1.05: 0.18%
same,Related Substances RRT 1.06,[10],RRT 1.06: 0.08%
same,Related Substances RRT 1.08,[10],RRT 1.08: 0.06%
same,Related Substances Total,[10],Total: 0.3%
same,Water Content,[10],0.14%
same,pH,[10],4.45
same,Appearance,"Method B sample, 5° C, 1 month",White powder
same,Appearance (Reconstituted Solution),"Method B sample, 5° C, 1 month","Clear, colorless"
same,Compound I by HPLC assay,"Method B sample, 5° C, 1 month",99.5%
same,Reconstitution Time,"Method B sample, 5° C, 1 month",60 s
same,Related Substances RRT 1.06,"Method B sample, 5° C, 1 month",RRT 1.06: 0.16%
same,Related Substances RRT 1.08,"Method B sample, 5° C, 1 month",RRT 1.08: 0.06%
same,Related Substances RRT 1.22,"Method B sample, 5° C, 1 month",RRT 1.22: 0.05%
same,Related Substances Total,"Method B sample, 5° C, 1 month",Total: 0.3%
same,Water Content USP<921 Method 1c>,"Method B sample, 5° C, 1 month",1.51%
same,pH (USP<791>),"Method B sample, 5° C, 1 month",4.4
same,Appearance,[11],Off-white powder
same,Appearance (Reconstituted Solution),[11],"Clear, colorless"
same,Compound I by HPLC assay,[11],101.2%
same,Related Substances RRT 0.17,[11],RRT 0.17: 0.05%
same,Related Substances RRT 1.04,[11],RRT 1.04: 0.08%
same,Related Substances RRT 1.05,[11],RRT 1.05: 0.19%
same,Related Substances Total,[11],Total: 0.3%
same,Water Content USP<921 Method 1c>,[11],1.19%
same,pH (USP<791>),[11],4.5
same,Appearance,[12],Off-white powder
same,Appearance (Reconstituted Solution),[12],"Clear, colorless"
same,Compound I by HPLC assay,[12],100.7%
same,Related Substances RRT 1.05,[12],RRT 1.05: 0.13%
same,Related Substances Total,[12],Total: 0.1%
same,Water Content USP<921 Method 1c>,[12],1.25%
same,pH (USP<791>),[12],4.5
same,Appearance,"Method B sample, 5° C, Initial",White powder
same,Appearance (Reconstituted Solution),"Method B sample, 5° C, Initial","Clear, colorless"
same,Compound I by HPLC assay,"Method B sample, 5° C, Initial",100.2%
same,Related Substances RRT 0.96,"Method B sample, 5° C, Initial",RRT 0.96: 0.05%
same,Related Substances RRT 1.04,"Method B sample, 5° C, Initial",RRT 1.04: 0.05%
same,Related Substances RRT 1.06,"Method B sample, 5° C, Initial",RRT 1.06: 0.17%
same,Related Substances RRT 1.08,"Method B sample, 5° C, Initial",RRT 1.08: 0.06%
same,Related Substances Total,"Method B sample, 5° C, Initial",Total:0.3%
same,Water Content USP<921 Method 1c>,"Method B sample, 5° C, Initial",1.12%
